The values that follow are results of earlier work, collected in patent US12161661B2, “Topical composition for destroying, in vivo, an external hyperplastic tissue, such as, but not limited to, a viral skin lesion, such as, but not limited to, a viral wart” (priority 2022, dated 2024).

Where two headings read alike, the source gives them in different places.

In data set [1] the test system is warts of the hands and legs. The settings on record: 5% cream once a day for 4 weeks, with occlusion.
Data set [2] has as its system plantar warts. As to conditions: 12 weeks; 19/20.
For data set [3], the system named is warts.
For data set [4], the system named is warts on the palms and soles.
Data set [5] has as its system plantar warts. The settings on record: 10% solution.
Data set [6] concerns warts. The source holds these as a separate data set.
The test system of data set [7] is warts on the hands and feet. As to conditions: plus light source PDL.
The next data set relates to periungual warts. The settings on record: once in two weeks for 6 weeks, after fractional CO2 laser.
The subject of data set [8] is flat warts on the face. The settings on record: 0.7% cantharidin, over 16 weeks on average.
Data set [9] deals with warts. As to conditions: oral, within 3 months, children aged 2.5-12.5 years; 16/20.
Data set [10] relates to flat warts on the face. The settings on record: after 2 months, 0.5 mg/kg. per day.
Data set [11] concerns warts. The settings on record: 80% solution every week for 6 weeks.
Data set [12] relates to warts. This is another data set of the same source.
Data set [13] relates to warts. This is another data set of the same source.
In data set [14] the test system is warts. As to conditions: 1 of 30.
[15] abbreviates: 15-26% salicylic acid locally every day for 3 to 4 months.

For `O=c1[nH]cc(F)c(=O)[nH]1` [5-FU, Ftoruracil], in data set [1], the “warts cleared at the end of treatment” value was 60%. In addition, the “complete cure, patients” value in the data set on plantar warts [2] was 95%.
As to `Nc1ccn(C[C@@H](CO)OCP(=O)(O)O)c(=O)n1` [Cidofovir], the resolution of warts with warts [3] (average of 3.2 injections per course) is given as 98%. For the same molecule, the side effects entry in the data set with warts [3] (in vivo) was “nephrotoxicity, neutropenia, and metabolic acidosis”.
Take `O=c1c(-c2ccccc2)c1-c1ccccc1` [DPC, Diphenylcyclopropenone]: the “complete disappearance of warts” value in [4] (48 patients treated with DPC) was 88%. Also, the average processing time in [4] (human, in vivo) is 5 months. In addition, the recurrence entry in data set [4] (within 2 years) is “no recurrence was observed”.
Take `O=CCCCC=O` [Glutaraldehyde]: the “efficiency compared with salicylic acid” value in the data set on plantar warts [5] is given as “equivalent to the solution of salicylic acid”. For the same molecule, the effectiveness with resistant warts (25 patients) is listed as 72%. The tolerability result in the data set on resistant warts (human, in vivo) is “well tolerated”.
Regarding `CC(C)Cn1cnc2c(N)nc3ccccc3c21` [Imiquimod], the “curing, patients” value in the data set with warts [6] (9.5 weeks, 50 patients of whom 19 had immunosuppression) is 56%. Further, the “patients with a 50% egression of warts” value with warts [6] (twice daily for up to 24 weeks) is given as 76%.
Consider `COC(=O)CCC(=O)CN` [MAL-PDT, methyl5-aminolaevuninic acid], for which the “resolution of treated warts” value in [7] is 53%. The cure rate in the data set on periungual warts was 90%.
For the molecule `C[C@@]12C(=O)OC(=O)[C@]1(C)[C@H]1CC[C@@H]2O1` [cantharidin], the cure result in the data set with flat warts on the face [8] is “cure in all 15 patients”.
With `CCOC(=O)/C=C(C)/C=C/C=C(C)/C=C/c1c(C)cc(OC)c(C)c1C` [etretinate], in the data set on warts [9], the effect observed was 80%.
As to `CC1=C(/C=C/C(C)=C/C=C/C(C)=C\C(=O)O)C(C)(C)CCC1` [isotretinoin], the effect in the data set on flat warts on the face [10] is 73%.
In the case of `Oc1ccccc1` [phenol], the cure rate with warts [11] is on record as 83%.
As for `CC(=O)C(=O)O` [pyruvic acid], the “recovery, patients” value with warts [12] (in combination with 0.5% 5-FU) is listed as 80%; in the data set with warts [12] (pyruvic acid alone), 70%.
Consider `O=C(O)c1ccccc1O` [salicylic acid], for which, in the data set with warts [13] (setting [15]), the average cure rate is recorded as 49% and the “cure rate, range” value is listed as 0-69%. The “effect of the salicylic acid (qualitative studies)” value in the data set with warts [13] (in vivo) is listed as “low”.
Regarding `CC1=C(/C=C/C(C)=C/C=C/C(C)=C/C(=O)O)C(C)(C)CCC1` [tretinoin], the “effect achieved, patients” value in the data set with warts [14] is given as 3%.
In the case of bleomycin, in the data set on wart (0.1-1 mg injected into the wart, compared with cryotherapy), the cure rate was 92-97%. The “pain after injection, duration” value in the data set on wart (main side effect) is given as “up to 48 hours”.
